Experiment [1] addresses T1, human orexin-1 receptor (hOX1R) (Homo sapiens, UniProt O43613).
T1 construct: expressed in transfected cells; host or cells: Chinese hamster ovary (CHO) cells, grown under G418 selection
T1 sequence (O43613 1-425): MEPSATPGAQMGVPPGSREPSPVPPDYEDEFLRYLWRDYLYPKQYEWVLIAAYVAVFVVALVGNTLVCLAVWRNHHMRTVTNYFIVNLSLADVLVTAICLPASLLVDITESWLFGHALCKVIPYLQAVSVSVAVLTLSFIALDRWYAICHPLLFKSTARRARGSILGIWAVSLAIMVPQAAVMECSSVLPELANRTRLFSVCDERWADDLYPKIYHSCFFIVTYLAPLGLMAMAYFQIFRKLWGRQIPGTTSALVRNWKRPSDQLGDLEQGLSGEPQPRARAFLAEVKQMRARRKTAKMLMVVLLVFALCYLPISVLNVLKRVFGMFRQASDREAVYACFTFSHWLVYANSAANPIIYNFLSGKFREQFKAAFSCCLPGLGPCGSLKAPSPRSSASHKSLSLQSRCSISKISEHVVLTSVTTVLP
Kind of experiment: FLIPR Ca2+ Flux Assay, CHO cells expressing hOX1R. Format: cell-based. As to conditions: agonist 70 pM Ala-6,12 orexin-A. On the procedure:
(§1) Chinese hamster ovary (CHO) cells expressing the human orexin-1 receptor (hOX1R) or the human orexin-2 receptor (hOX2R) were grown in Iscove's modified DMEM containing 2 mM L-glutamine, […], 1% hypoxanthine-thymidine supplement, 100 U/ml penicillin, 100 μg/ml streptomycin and 10% heat-inactivated fetal calf serum (FCS). The cells were seeded at 20,000 cells/well into Becton-Dickinson black 384-well clear bottom sterile plates coated with poly-D-lysine. All reagents were from GIBCO-Invitrogen Corp. The seeded plates were incubated overnight at 37° C. and 5% CO2. Ala-6,12 human orexin-A, used as the agonist, was prepared as a 1 mM stock solution in 1% bovine serum albumin (BSA) and diluted in assay buffer (HBSS containing 20 mM HEPES, 0.1% BSA and 2.5 mM probenecid, pH7.4) for use in the assay at a final concentration of 70 pM. Test compounds were prepared as 10 mM stock solution in DMSO, then diluted in 384-well plates, first in DMSO, then assay buffer.
On the day of the assay, cells were washed 3× with 100 μl assay buffer and then incubated for 60 minutes (37° C., 5% CO2) in 60 μl assay buffer containing 1 μM Fluo-4AM ester, 0.02% pluronic acid, and 1% BSA. The dye loading solution was then aspirated and cells were washed 3× with 100 μl assay buffer. 30 μl of that same buffer was left in each well. Within the Fluorescent Imaging Plate Reader (FLIPR, Molecular Devices), test compounds were added to the plate in a volume of 25 μl, incubated for 5 minutes, and then 25 μl of agonist was added. Fluorescence was measured for each well at 1 second intervals for 5 minutes, and the height of each fluorescence peak was compared to the height of the fluorescence peak induced by 70 pM of Ala-6,12 orexin-A with buffer in place of test compound.

Experiment [2] deals with T2, human orexin-2 receptor (hOX2R) (Homo sapiens, UniProt O43614).
T2 construct: expressed in transfected cells; host or cells: Chinese hamster ovary (CHO) cells, grown under G418 selection
T2 sequence (O43614 1-444): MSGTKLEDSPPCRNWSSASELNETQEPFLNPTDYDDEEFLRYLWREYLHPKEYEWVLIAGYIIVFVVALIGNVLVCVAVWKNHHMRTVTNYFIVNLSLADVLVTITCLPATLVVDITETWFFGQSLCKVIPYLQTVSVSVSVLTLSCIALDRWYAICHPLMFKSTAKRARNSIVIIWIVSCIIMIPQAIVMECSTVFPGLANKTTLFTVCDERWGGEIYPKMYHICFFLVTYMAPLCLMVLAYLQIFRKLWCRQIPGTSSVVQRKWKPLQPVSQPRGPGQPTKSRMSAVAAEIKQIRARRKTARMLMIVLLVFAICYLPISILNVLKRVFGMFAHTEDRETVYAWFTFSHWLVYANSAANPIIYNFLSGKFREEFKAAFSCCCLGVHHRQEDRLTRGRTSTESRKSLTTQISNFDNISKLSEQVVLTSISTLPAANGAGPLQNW
In words: FLIPR Ca2+ Flux Assay, CHO cells expressing hOX2R. Format: cell-based. The conditions noted are these: agonist 70 pM Ala-6,12 orexin-A. On the procedure: The utility of the compounds in accordance with the present invention as orexin receptor OX1R and/or OX2R antagonists may be readily determined without undue experimentation by methodology well known in the art, including the “FLIPR Ca^2+ Flux Assay” (Okumura et al., Biochem. Biophys. Res. Comm. 280:976-981, 2001). In a typical experiment the OX1 and OX2 receptor antagonistic activity of the compounds of the present invention was determined in accordance with the following experimental method. For intracellular calcium measurements, Chinese hamster ovary (CHO) cells expressing the rat orexin-1 receptor or the human orexin-2 receptor, are grown in Iscove's modified DMEM containing 2 mM L-glutamine, […], 1% hypoxanthine-thymidine supplement, 100 U/ml penicillin, 100 μg/ml streptomycin and 10% heat-inactivated fetal calf serum (FCS). The cells are seeded at 20,000 cells/well into Becton-Dickinson black 384-well clear bottom sterile plates coated with poly-D-lysine. All reagents were from GIBCO-Invitrogen Corp. The seeded plates are incubated overnight at 37° C. and 5% CO2. Ala-6,12 human orexin-A as the agonist is prepared as a 1 mM stock solution in 1% bovine serum albumin (BSA) and diluted in assay buffer (HBSS containing 20 mM HEPES, 0.1% BSA and 2.5 mM probenecid, pH7.4) for use in the assay at a final concentration of 70 pM. Test compounds are prepared as 10 mM stock solution in DMSO, then diluted in 384-well plates, first in DMSO, then assay buffer. On the day of the assay, cells are washed 3 times with 100 μl assay buffer and then incubated for 60 min (37° C., 5% CO2) in 60 μl assay buffer containing 1 μM Fluo-4AM ester, 0.02% pluronic acid, and 1% BSA. The dye loading solution is then aspirated and cells are washed 3 times with 100 μl assay buffer. 30 μl of that same buffer is left in each well. Within the Fluorescent Imaging Plate Reader (FLIPR, Molecular Devices), test compounds are added to the plate in a volume of 25 μl, incubated for 5 min and finally 25 μl of agonist is added. Fluorescence is measured for each well at 1 second intervals for 5 minutes and the height of each fluorescence peak is compared to the height of the fluorescence peak induced by 70 pM Ala-6,12 orexin-A with buffer in place of antagonist. For each antagonist, IC50 value (the concentration of compound needed to inhibit 50% of the agonist response) is determined. Alternatively, compound potency can be assessed by a radioligand binding assay (described in Bergman et. al. Bioorg. Med. Chem. Lett. 2008, 18, 1425-1430) in which the inhibition constant (Ki) is determined in membranes prepared from CHO cells expressing either the OX1 or OX2 receptor. The intrinsic orexin receptor antagonist activity of a compound which may be used in the present invention may be determined by these assays.
as §1, with “buffer. […]” for “buffer.”

The structures appear in SMILES notation.

As for `CC(C)c1ccnc(O[C@@H]2CC[C@@H](C)N(C(=O)c3ccccc3-n3nccn3)C2)c1CO` [Example 43, [4-(1-methylethyl)-2-{[(3R,6R)-6-methyl-1-{[2-(2H-1,2,3-triazol-2-yl)phenyl]carbonyl}piperidin-3-yl]oxy}pyridin-3-yl]methanol], the IC50 in experiment [1] amounted to 80 nM; in experiment [2], 23 nM.

Consider `C[C@@H]1CC[C@@H](Oc2ncccc2C(C)(C)O)CN1C(=O)c1cc(CF)ccc1-n1nccn1` [Example 2, 2-(2-{[(3R,6R)-1-{[5-(Fluoromethyl)-2-(2H-1,2,3-triazol-2-yl)phenyl]carbonyl}-6-methylpiperidin-3-yl]oxy}pyridin-3-yl)propan-2-ol], for which the IC50 in experiment [1] was found to be 30 nM; in experiment [2] it was 11 nM.

For `C#C[C@H](O)c1cccnc1O[C@@H]1CC[C@@H](C)N(C(=O)c2ccccc2-n2nccn2)C1` [Example 34, (1S)-1-(2-{[(3R,6R)-6-methyl-1-{[2-(2H-1,2,3-triazol-2-yl)phenyl]carbonyl}piperidin-3-yl]oxy}pyridin-3-yl)prop-2-yn-1-ol], the IC50 in experiment [1] was 584 nM; in experiment [2], 26 nM.

Take `COc1ccnc(O[C@@H]2CC[C@@H](C)N(C(=O)c3ccccc3-n3nccn3)C2)c1C(C)(C)O` (single isomer, unassigned) [Example 28]: the IC50 in experiment [1] is 93 nM; in experiment [2] it was 80 nM.

`Cc1ccnc(O[C@@H]2CC[C@@H](C)N(C(=O)c3ccccc3-n3nccn3)C2)c1CO` [Example 41, (4-methyl-2-{[(3R,6R)-6-methyl-1-{[2-(2H-1,2,3-triazol-2-yl)phenyl]carbonyl}piperidin-3-yl]oxy}pyridin-3-yl)methanol]: the IC50 in experiment [1] was 69 nM; in experiment [2], 15 nM.

For the molecule `CC[C@H](O)c1cccnc1O[C@@H]1CC[C@@H](C)N(C(=O)c2ccccc2-n2nccn2)C1` [Example 32, (1S)-1-(2-{[(3R,6R)-6-methyl-1-{[2-(2H-1,2,3-triazol-2-yl)phenyl]carbonyl}piperidin-3-yl]oxy}pyridin-3-yl)propan-1-ol], the figures for the IC50 in experiment [1] and in experiment [2] were 227 nM and 27 nM, respectively.

Take `C[C@@H]1CC[C@@H](Oc2ncccc2C(C)(C)O)CN1C(=O)c1ccccc1-c1ncccn1` [Example 23, 2-[2-({(3R,6R)-6-methyl-1-[(2-pyrimidin-2-ylphenyl)carbonyl]piperidin-3-yl}oxy)pyridin-3-yl] propan-2-ol]: the values for the IC50 in experiment [1] and in experiment [2] were 95 nM and 69 nM, respectively.

With `CC(O)c1cccnc1O[C@@H]1CC[C@@H](C)N(C(=O)c2ccccc2-n2nccn2)C1` (stereo partly drawn) [Example 31, 1-(2-{[(3R,6R)-6-methyl-1-{[2-(2H-1,2,3-triazol-2-yl)phenyl]carbonyl}piperidin-3-yl]oxy}pyridin-3-yl)ethanol], the figures for the IC50 in experiment [1] and in experiment [2] were 65 nM and 27 nM, respectively.

`COc1ccnc(O[C@@H]2CC[C@@H](C)N(C(=O)c3ccccc3-n3nccn3)C2)c1C(C)O` (stereo partly drawn) [Example 26, 1-(4-Methoxy-2-{[(3R,6R)-6-methyl-1-{[2-(2H-1,2,3-triazol-2-yl)phenyl]carbonyl}piperidin-3-yl]oxy}pyridin-3-yl)ethanol]: the IC50 was 463 nM in experiment [1] and 22.5 nM in experiment [2].

In the case of `COc1ccnc(O[C@@H]2CC[C@@H](C)N(C(=O)c3cccc(F)c3-n3nccn3)C2)c1CO` [Example 47, (3-Fluoro-2-(2H-1,2,3-triazol-2-yl)phenyl)((2R,5R)-5-((3-(hydroxymethyl)-4-methoxypyridin-2-yl)oxy)-2-methylpiperidin-1-yl)methanone], the IC50 in experiment [1] worked out at 1990 nM; in experiment [2], 81 nM.

For the molecule `C[C@@H]1CC[C@@H](Oc2ncccc2CO)CN1C(=O)c1ccccc1-n1ncnn1` [Example 50, (2-{[(3R,6R)-6-methyl-1-{[2-(2H-tetrazol-2-yl)phenyl]carbonyl}piperidin-3-yl]oxy}pyridin-3-yl)methanol], the half-inhibitory concentration (IC50) stood at 1840 nM in experiment [1] and 289 nM in experiment [2].

For `C[C@@H]1CC[C@@H](Oc2ncccc2C(C)(C)O)CN1C(=O)c1ccccc1N1CCCC1` [Example 12, 2-[2-({(3R,6R)-6-methyl-1-[(2-pyrrolidin-1-ylphenyl)carbonyl]piperidin-3-yl}oxy)pyridin-3-yl]propan-2-ol], the half-maximal inhibitory concentration (IC50) in experiment [1] stood at 265 nM; in experiment [2], 104 nM.

In the case of `C[C@@H]1CC[C@@H](Oc2ncccc2C(C)(C)O)CN1C(=O)c1ccccc1-c1ccccc1` [Example 8, 2-(2-{[(3R,6R)-1-(biphenyl-2-ylcarbonyl)-6-methylpiperidin-3-yl]oxy}pyridin-3-yl)propan-2-ol], the figures for the 50% inhibitory concentration (IC50) in experiment [1] and in experiment [2] were 124 nM and 70 nM, respectively.

For `C[C@@H]1CC[C@@H](Oc2ncccc2C(C)(C)O)CN1C(=O)c1cc(F)ccc1-n1nccn1` [Example 5, 2-(2-{[(3R,6R)-1-{[5-fluoro-2-(2H-1,2,3-triazol-2-yl)phenyl]carbonyl}-6-methylpiperidin-3-yl]oxy}pyridin-3-yl)propan-2-ol], the IC50 in experiment [1] was determined as 121 nM; in experiment [2], 34 nM.

The values above are taken from patent US20160102073A1, “2-HYDROXYMETHYL-SUBSTITUTED OREXIN RECEPTOR ANTAGONISTS” (MERCK SHARP & DOHME CORP., priority 2013, published 2016).
